# From paper PMC9061822, “A novel SRSF3 inhibitor, SFI003, exerts anticancer activity against colorectal cancer by modulating the SRSF3/DHCR24/ROS axis” (Cell Death Discovery, 2022)
# “Also recorded” adds a separate entry of the source. Like-named read-outs stand apart in the source and are kept apart here. Where a SMILES comes first, the peptide text is derived from it. The star is where a group is joined. Cbz = O=C(OCc1ccccc1)*
# Legend:
# SRSF3 = target: T1, SRSF3 (Homo sapiens, UniProt P84103); experiment: Western blot of SRSF3 protein in HCT-116 and SW480 cells; format: cell-based; design: endogenous in cells; host or cells: HCT-116 and SW480; details: for effect on SFI003-induced SRSF3 degradation: HCT-116 and SW480, 20 μM SFI003 plus 3 μM MLN4924, 50 μM CHQ or 10 μM MG132 for 12 h
# T1 sequence (P84103 1-164): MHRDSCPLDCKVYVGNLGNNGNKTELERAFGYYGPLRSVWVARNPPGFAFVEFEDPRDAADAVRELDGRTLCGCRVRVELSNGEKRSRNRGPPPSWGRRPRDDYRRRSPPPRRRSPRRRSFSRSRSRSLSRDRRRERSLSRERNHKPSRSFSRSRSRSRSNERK
# Experimental: (§1) After cell lysates were prepared, protein concentrations were determined by a BCA assay (TaKaRa, Kusatsu, Japan). Equal amounts of protein were separated by SDS–PAGE and transferred to polyvinylidene difluoride membranes. After normalization, the blots were probed with appropriate antibodies, as described previously.
# ROS = experiment: Detection of ROS (DCFH-DA) in HCT-116 and SW480 cells; format: cell-based, Human; details: 72 h
# Experimental: Following treatment with SFI003 or siRNA, the cells were washed with PBS and incubated with DCFH-DA for 20 min at 37 °C. After washing three times, the cells were collected and measured at 488 nm excitation and 525 nm emission by a microplate reader (Tecan, Switzerland) according to the manufacturer’s instructions (Beyotime, Shanghai, China). The protein concentrations were determined by using a BCA assay (TaKaRa, Kusatsu, Japan).
# HCT-116 and SW480 cells [1] = experiment: WB of EMT and apoptosis markers with ROS scavengers; format: cell-based, Human; details: 20 μM SFI003 with 5 mM NAC or 100 μM Trolox, 72 h
# Experimental: as §1
# HCT-116 cells = experiment: MTT assay in HCT-116 cells; format: cell-based, Human
# Experimental: (§2) Human CRC cell lines were purchased from the American Type Culture Collection (VA, USA). HCT-116 cells were cultured in DMEM (HyClone, Utah, USA) containing 10% fetal bovine serum (FBS; Gibco, NY, USA). SW480 cells were cultured in RPMI 1640 medium (HyClone, Utah, USA) containing 10% FBS. All cells were cultured in an incubator (Thermo, CA, USA) at a constant temperature of 37 °C and 5% CO2. N-Acetylcysteine (NAC), Trolox, MLN4924, 5-Fu, and capecitabine were purchased from MedChemExpress LLC (Shanghai, China). MG132 was purchased from Santa Cruz Biotech (CA, USA). Chloroquine (CHQ) was purchased from Sigma (CA, USA). Rapamycin was purchased from Beyotime (Shanghai, China). Primary antibodies against SRSF3 and E-Cadherin were purchased from Abcam (Cambridge, UK). Primary antibodies against N-Cadherin, Caspase 3, DHCR24, CAT, Akt and phospho-Akt (Ser473) were purchased from Cell Signaling Technology (MA, USA). Primary antibodies against β-actin, mTOR, and phospho-mTOR ([…]) were purchased from Beyotime (Shanghai, China). Primary antibody against Vimentin was purchased from Proteintech (Wuhan, China). Primary antibody against Bcl-2 was purchased from Santa Cruz Biotech (CA, USA). Primary antibody against Flag was purchased from MBL Beijing Biotech (Beijing, China). CRC cells were transfected with 100 nM siRNA or treated with various doses of SFI003 for 24 h, 48 h, or 72 h before being subjected to MTT assay as described previously.
# SW480 cells = experiment: MTT assay in SW480 cells; format: cell-based, Human
# Experimental: as §2
# HCT-116 xenografts = HCT-116 xenografts in SCID mice; format: in vivo; details: two weeks; for number of tumors that disappeared: HCT-116 xenografts
# Experimental: (§3) To explore the effect of SFI003 on the growth of CRC, approximately 3 × 10^6 HCT-116 cells or 8 × 10^6 SW480 cells were collected and mixed with Matrigel (Corning, NY, USA) at a 1:1 ratio by volume and then injected into the lower back region of mice. When tumors were palpable, mice were randomly divided into four groups. One group received vehicle as a control, while the other three groups were orally administered SFI003 at a dosage of 100 or 200 mg/kg or capecitabine at a dosage of 100 mg/kg for two continuous weeks. The tumor sizes and mouse body weights were monitored every other day. At the end of the experiment, tumors and blood samples were collected for further studies. The tumor size was evaluated according to Eq.: tumor size (mm^3) = (length × width^2) × 0.5.
# SW480 xenografts = SW480 xenografts in SCID mice; format: in vivo
# Experimental: as §3
# [2] = Pharmacokinetics in ICR mice; format: in vivo; details: mouse, plasma
# Experimental: 29 the blood samples by centrifuging at 5,000 rpm under 4℃ for 5 min. […]
# (§4) 33 or tissue sample was added into 100 µl acetonitrile containing internal standard
# (§5) 34 Tolbutamide. The mixture was vortexed for 3 min and centrifuged at 13,000 rpm for 10
# (§6) 35 min. An aliquot of 10 µl resulting supernatant was injected to LC -MS/MS system
# (§7) 36 (API4000 QTrap; AB Sciex) for compound analysis. The analytes were separated in a
# (§8) 37 Venusil XBP-C18 column (2.1×50 mm, 5 μm; Agela, China) using the mixture of 5mM
# (§9) 38 NH4OAc-0.1% formic acid (A) and methanol (B) as mobile phase. The gradient
# (§10) 39 condition was: 1.3 min, 2%B; 2.0 min, 90%B; 3.5 min, 90%B; 3.8 min, 2%B. The elutes
# (§11) 40 were detected by MS/MS spectrometry using ESI positive mode with m/z 271.1>172.2,
# (§12) 42 SFI003. […]
# 52 Druggability evaluation of SFI003
# 53 Next, we evaluated the druggability of SFI003. We first examined the
# 54 pharmacokinetic properties of SFI003 in mice. We measured the plasma concentration
# 55 of SFI003 in mice after oral administration of 100 mg/kg SFI003.
# [3] = Tissue distribution in ICR mice; format: in vivo; details: oral 100 mg/kg
# Experimental: 29 the blood samples by centrifuging at 5,000 rpm under 4℃ for 5 min. For
# 30 determination of SFI003 concentration in mice tissues, the male ICR mice (n=3) were
# 31 orally administrated with 100mg/kg SFI003, and the liver and kidney of the mice were
# 32 collected at 0.25, 0.5, 1, 2, 4, 8, and 12 h after administration. An aliquot of 25 µl plasma
# as §4, §5, §6, §7, §8, §9, §10, §11, §12
# [4] = Metabolic stability in human liver microsomes; format: in vitro ADME
# [5] = Metabolic stability in rat liver microsomes; format: in vitro ADME
# Plasma protein binding = format: in vitro ADME; details: read-out: plasma protein binding rate (converted)
# [6] = system: CCDC50S, p53α and p53β mRNA; experiment: RT-PCR of SRSF3 target gene mRNA in HCT-116 and SW480 cells; format: cell-based, Human; details: 20 μM, 72 h
# Experimental: (§13) HCT-116 and SW480 cells were transfected with 100 nM siRNA for 48 h or treated with SFI003 for 72 h. Total RNA was isolated by using TRIzol (Invitrogen, CA, USA) according to the manufacturer’s instructions and then was reversely transcribed into cDNA with random primers (TaKaRa, Kusatsu, Japan) and RT-Kit (Thermo, CA, USA). The cDNA was amplified by PCR using the primers listed in Supplementary Table 1.
# [7] = Serum biochemical analysis / tolerability in treated mice; format: in vivo
# Experimental: as §3
# HCT-116 and SW480 cells [8] = experiment: Wound-healing and Transwell migration assays; format: cell-based, Human; details: HCT-116 and SW480, 10 μM, 24 h
# Experimental: HCT-116 and SW480 cells were seeded into six-well plates in confluent monolayers. Then, the cells were transfected with 100 nM siRNA or treated with 10 μM SFI003. Scratch wounds were created using a sterilized tip in 0.5% serum medium. Images were captured at 0 h, 24 h, and 72 h after wounding. Three independent measurements of wound width were conducted.
# HCT-116 and SW480 cells (1 × 10^5) were resuspended in 200 µl medium containing 0.1% serum and then added to the upper compartment of migration chambers (Costar, Corning, NY, USA). The bottom chamber was filled with 600 µl cell culture medium with 20% FBS as an attractant. After coculture for 24 h or 48 h, the cells were fixed in 4% paraformaldehyde and stained with 0.1% crystal violet. The stained cells in 8 random fields were counted at ×100 magnification. Three independent measurements were conducted.
# DHCR24 = experiment: RT-PCR and WB of DHCR24 in HCT-116 and SW480 cells; format: cell-based, Human; details: HCT-116 and SW480, 20 μM, 72 h
# Experimental: as §13, §1
# Akt-mTOR pathway = experiment: WB of p-Akt and p-mTOR in HCT-116 and SW480 cells; format: cell-based, Human; details: HCT-116 and SW480, 20 μM, 72 h
# Experimental: as §1
# [9] = Pharmacokinetics in ICR mice; format: in vivo; details: mouse, plasma, iv, 10 mg/kg
# [10] = read-out: intrinsic clearance (converted)
# [11] = SFI003-treated tumor-bearing mice
compound,measurement,setting,value
CC(C)C[C@@H](C=O)NC(=O)[C@H](CC(C)C)NC(=O)[C@H](CC(C)C)NC(=O)OCc1ccccc1 [MG132] (Cbz-Leu-Leu-Leu-aldehyde),effect on SFI003-induced SRSF3 degradation,SRSF3,rescued
NS(=O)(=O)OC[C@@H]1C[C@@H](n2ccc3c(N[C@H]4CCc5ccccc54)ncnc32)C[C@@H]1O [MLN4924],effect on SFI003-induced SRSF3 degradation,SRSF3,rescued
"CC(=O)N[C@@H](CS)C(=O)O [NAC, N-Acetylcysteine]",effect on SFI003-induced ROS,ROS; 20 μM SFI003 with 5 mM NAC or 100 μM Trolox,significantly reversed
same,effect on SFI003-induced apoptosis and migration disability,HCT-116 and SW480 cells [1],reversed
COc1ccc(-c2csc(N/N=C(\C)c3nc4ccccc4[nH]3)n2)cc1 [SFI003],cytotoxicity after SRSF3 silencing,"HCT-116 cells; HCT-116, SRSF3 siRNA 24 h, then 10 μM for 72 h",eliminated
same,inhibition of proliferation,"HCT-116 cells; HCT-116, various doses, 24, 48 and 72 h",dose- and time-dependent
same,IC50 compared with the other synthesized compounds,"HCT-116 cells; HCT-116 cells, 72 h",the most potent compound with the lowest IC50 value
same,IC50,"HCT-116 cells; Homo sapiens, HCT-116 cells, 72 h",8.78 µM
same,IC50,"SW480 cells; Homo sapiens, SW480 cells, 72 h",48.7 µM
same,cytotoxicity after SRSF3 silencing,"SW480 cells; SW480, SRSF3 siRNA 24 h, then 50 μM for 72 h",eliminated
same,inhibition of proliferation,"SW480 cells; SW480, various doses, 24, 48 and 72 h",dose- and time-dependent
same,growth of HCT-116 xenografts,"HCT-116 xenografts; 100 or 200 mg/kg orally, dose-dependent",efficiently suppressed
same,number of tumors that disappeared,"HCT-116 xenografts; 100 mg/kg orally, 100 mg/kg",two and two of six
same,number of tumors that disappeared,HCT-116 xenografts; 200 mg/kg orally,three
same,growth of SW480 xenografts,"SW480 xenografts; 100 or 200 mg/kg orally, two weeks, dose-dependent",efficiently suppressed
same,body weight,"SW480 xenografts; SW480 tumor-bearing mice, oral, two weeks",slight reduction
same,antitumor activity compared with capecitabine,"SW480 xenografts; SW480 xenografts, oral, two weeks, capecitabine 100 mg/kg",stronger inhibitory activity than capecitabine; also recorded: more potent antitumor efficacy than capecitabine
same,concentration of SFI003 in tumors versus plasma,"SW480 xenografts; mice grafted with SW480 cells, 100 mg/kg, 2 h",close to the plasma
same,bioavailability,"[2]; oral, p.o. 100 mg/kg vs i.v. 10 mg/kg, read-out: F (bioavailability)",52.5%
same,AUC(0-inf),"[2]; po, 100 mg/kg",30900 ng·h/mL
same,AUC(0-t),"[2]; po, 100 mg/kg",30900 ng·h/mL
same,Tmax,"[2]; po, 100 mg/kg",2 h
same,half-life,"[2]; po, 100 mg/kg",1.86 h
same,MRT inf,"[2]; po, 100 mg/kg, read-out: MRTINF_obs",4.66 h
same,Cmax,"[2]; po, 100 mg/kg",4440 ng/mL
same,distribution to liver and kidney,[3],highly accumulated
same,half time,[4],31.50 min
same,CLint scaled,[4]; [10],55.2 mL/min/kg
same,half time,[5],53.31 min
same,CLint scaled,[5]; [10],46.7 mL/min/kg
same,fraction unbound,Plasma protein binding,0.586
same,mRNA level of CCDC50S,[6],markedly reduced
same,mRNA level of p53α,[6],markedly reduced
same,mRNA level of p53β,[6],elevated
same,ROS level,"ROS; HCT-116 and SW480, 10, 20 and 50 μM, dose-dependent",significantly enhanced
same,"serum ALP, ALT, AST, GGT",[7]; [11],no alteration
same,serum CRE and URE,[7]; [11],moderate
same,tolerability in vivo,[7]; mice,well tolerated
same,migration of CRC cells,HCT-116 and SW480 cells [8],repressed
same,DHCR24 mRNA and protein,DHCR24,inhibited
same,activities of Akt (p-Akt) and mTOR (p-mTOR),Akt-mTOR pathway,inhibited
same,AUC(0-inf),[9],5890 ng·h/mL
same,AUC(0-t),[9],5890 ng·h/mL
same,half-life,[9],0.4 h
same,MRT inf,[9]; read-out: MRTINF_obs,0.44 h
same,Vd,[9]; read-out: Vss,0.75 L/kg
same,level of SRSF3 protein,"SRSF3; HCT-116 and SW480 cells, various doses, 72 h",apparently reduced
